Experimental data: patent US12006332B2, “Aminopyrimidine derivatives as phosphatidylinositol phosphate kinase inhibitors” (HiberCell, Inc., priority 2019, dated 2024)

Columns and labels:
[1] = target: T1, PIP4K2 B (Homo sapiens, UniProt P78356); test: Kinase Assay-PIP4K2 B (Transcreener FI); format: biochemical
T1 construct: made in house; host or cells: E. coli
T1 sequence (P78356 1-416): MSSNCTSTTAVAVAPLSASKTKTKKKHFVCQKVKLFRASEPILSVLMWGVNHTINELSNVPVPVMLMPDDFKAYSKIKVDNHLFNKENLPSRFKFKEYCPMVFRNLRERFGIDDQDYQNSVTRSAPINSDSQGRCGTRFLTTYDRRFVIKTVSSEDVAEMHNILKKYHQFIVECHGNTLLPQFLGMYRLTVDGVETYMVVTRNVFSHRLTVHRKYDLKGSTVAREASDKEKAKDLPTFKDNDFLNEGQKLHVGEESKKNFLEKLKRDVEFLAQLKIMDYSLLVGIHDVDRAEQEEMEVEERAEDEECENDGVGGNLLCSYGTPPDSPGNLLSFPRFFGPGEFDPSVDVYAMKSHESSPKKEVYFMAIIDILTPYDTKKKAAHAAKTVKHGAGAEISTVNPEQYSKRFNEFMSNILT
From the text: GST tagged PIP4KtypeIIA and B enzymes were overexpressed in E. Coli and purified to >80% homogeneity. Phosphatidyl inositol-5-phosphate (PI5P, Cat. #850152, Avanti Polar Lipids Inc.) was used as the lipid substrate and phosphatidyl ethanolamine (DOPE 18:1, Cat. #850725, Avanti Polar Lipids Inc.) was used as the carrier lipid for assays. Ultrapure ATP and GTP was purchased from Bellbrooke Labs. ADP Glo reagents were obtained from Promega. Transcreener FI reagent was obtained from Bellbrooke labs.
• 1. HEPES buffer mix: 200 mM HEPES pH 7.4, 50 mM MgCl2, 0.05% v/v triton X 100 • 2. HNE buffer: 20 mM HEPES, pH 7.4, 100 mM NaCl, 0.5 mM EGTA • 3. H:E buffer: 30 mM HEPES, pH 7.4, 1 mM EGTA
GST-tagged PIP4KtypeIIB (3.4 μl, 2.77 mg/mL) was diluted to 5 mL using HNE buffer to yield 5× enzyme stock (25 nM)
Lipid Preparation: In a 10 mL pyrex glass vial, […] were suspended in 2.5 mL of HEPES buffer mix and 2.5 mL of H:E buffer. The contents were mixed and sonicated for 3 min to yield a translucent lipid stock.
Compound Preparation: Compounds were stored as 5 mM stocks in neat DMSO as room temperature in glass vials. 5 mM stocks were diluted to 2 mM and then serially diluted (3×) in neat DMSO in 96 well polypropylene plates. From the serially diluted stocks, 3 μL was delivered into 250 μL of 25% DMSO (in water) to generate 5× compound stocks. Typically, the highest compound conc. was 24 μM.
The assay volume was kept at 25 μL. To each well of the reaction plate, 10 μL of lipid stock (1:1 ratio PI5P:DOPE) was delivered. This was followed by the addition of 5 μL of compound in 25% DMSO. Then, to each well, 5 μL of 25 nM (5×) typeIIB enzyme was delivered. The contents were mixed well and incubated for 1 h at 27° C. After 1 h, reaction was initiated by adding 5 μL of 500 μM GTP and the contents were mixed well with a multi-channel pipetteman. The final concentration of the reagents are as follows: 50 mM HEPES, pH 7.3, 10 mM MgCl2, 20 mM NaCl, 0.01% v/v triton-X100, 5% DMSO, 100 μM GTP, 80 μM (2 μg) PI5P, 2 μg DOPE, and 5 nM PIP4KIIB Typically, the highest conc. of compounds was 4.8 μM and the lowest conc. was 0.
After 2 h, the reaction was quenched by adding 25 μL of transcreener FI reagent. The contents were incubated at rt for 1 h and the Fluorescence (Ex: 584 Em: 623) was read using Molecular Devices Paradigm plate reader. […] The blanks were averaged and subtracted from all other wells. Using a calibration curve, RFU was converted to μM GDP (product). IC50 was calculated by plotting the residual activity (expressed as % No inhibitor control) vs. log [Inh. conc.].

[2] = test system: MOLM-16; test: MOLM-16 EC50 assay; format: cell-based; settings: MOLM16
[3] = target: T2, PIP4K2A (Homo sapiens, UniProt P48426); test: Kinase Assay-PIP4K2 A (ADP-Glo); format: biochemical
T2 construct: made in house; host or cells: E. coli
T2 sequence (P48426 1-406): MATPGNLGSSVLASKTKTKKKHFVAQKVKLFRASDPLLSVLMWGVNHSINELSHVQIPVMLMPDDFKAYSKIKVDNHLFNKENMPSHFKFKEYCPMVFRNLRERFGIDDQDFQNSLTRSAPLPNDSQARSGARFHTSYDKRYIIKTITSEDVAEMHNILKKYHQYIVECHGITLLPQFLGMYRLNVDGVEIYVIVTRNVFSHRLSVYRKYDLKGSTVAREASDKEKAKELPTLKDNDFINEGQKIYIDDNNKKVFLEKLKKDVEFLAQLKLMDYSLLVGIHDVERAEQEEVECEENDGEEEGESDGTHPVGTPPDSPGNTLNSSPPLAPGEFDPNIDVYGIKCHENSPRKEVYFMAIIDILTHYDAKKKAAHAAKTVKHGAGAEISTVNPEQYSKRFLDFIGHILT
Method: Dilution series of the compounds were prepared in DMSO at 100 times the final assay concentration (n1=n0/3 in 10 points). The compounds were further diluted to three times the assay concentration in assay buffer (20 mM MOPS pH 7.2, 25 mM magnesium chloride, 0.005% Tween 20). 6 μL of the diluted compounds were added to a 384 well assay plate followed by 9 μL of a mix consisting of 4 nM PIP4K2A (full length protein, SignalChem) and 100 μM PI(5)P diC8 (Tebu-Bio). Enzyme and compounds were pre-incubated at room temperature for 15 minutes.
Then 3 μL of a solution containing 60 μM ATP (Promega) in assay buffer was added to the wells containing compound and enzyme and mixing was performed by pipetting several times. The reaction was incubated at room temperature for 1 h. Then 18 μL of ADP-Glo™ Reagent (Promega) was added to stop the kinase reaction and deplete the unconsumed ATP, mixing was performed by pipetting several times. The plate was incubated at room temperature for 40 minutes before addition of 36 μL of Kinase Detection Reagent (Promega) to convert ADP to ATP and introduce luciferase and luciferin to detect ATP. The reaction was incubated at room temperature for 40 minutes before the luminescence was measured in a in a Victor 3V 1420 multilabel counter (Perkin Elmer).
Percent inhibition of the compounds as compared to dimethyl sulfoxide treated control samples was calculated. Compound concentration versus percent inhibition were fitted to generate IC50 values. […]

O=C(O)CNc1nc(Nc2cnc3c(c2)N2C(=O)CC[C@H]2CO3)ncc1-c1ccc(N2CCCC2=O)cc1 [Compound 1, 2-[(2-{[(6S)-3-oxo-8-oxa-2,10-diazatricyclo[7.4.0.0^2,6]trideca-1(9),10,12-trien-12-yl]amino}-5-[4-(2-oxopyrrolidin-1-yl)phenyl]pyrimidin-4-yl)amino]acetic acid] showed an IC50 [1] of no more than 1 nM, an EC50 [2] greater than 1000 nM and an IC50 [3] of no more than 1 nM.
CN(c1nc(Nc2cnc3c(c2)N2C(=O)CC[C@H]2CO3)ncc1-c1ccc(N2CCCC2=O)cc1)[C@H]1CCOC1 [Compound 2, (6S)-12-[(4-{methyl[(3S)-oxolan-3-yl]amino}-5-[4-(2-oxopyrrolidin-1-yl)phenyl]pyrimidin-2-yl)amino]-8-oxa-2,10-diazatricyclo[7.4.0.0^2,6]trideca-1(13),9,11-trien-3-one] gave an IC50 [1] of 1 to 10 nM, an EC50 [2] greater than 1000 nM and an IC50 [3] of no more than 1 nM.
CN(c1nc(Nc2cnc3c(c2)N2C(=O)CC[C@H]2CO3)ncc1-c1ccc(N2CCCC2=O)cc1)C1CCOC1 (stereo partly drawn) [Compound 3, (6S)-12-({4-[methyl(oxolan-3-yl)amino]-5-[4-(2-oxopyrrolidin-1-yl)phenyl]pyrimidin-2-yl}amino)-8-oxa-2,10-diazatricyclo[7.4.0.0^2,6]trideca-1(13),9,11-trien-3-one] was tested, and the IC50 [1] was 1 to 10 nM, the EC50 [2] was greater than 1000 nM and the IC50 [3] was no more than 1 nM.
Molecule CN(c1nc(Nc2cnc3c(c2)N2C(=O)CC[C@H]2CO3)ncc1-c1ccc(N2CCCC2=O)cc1)[C@H]1C[C@H](O)C1 [Compound 4, (6S)-12-[(4-{methyl[(1r,3r)-3-hydroxycyclobutyl]amino}-5-[4-(2-oxopyrrolidin-1-yl)phenyl]pyrimidin-2-yl)amino]-8-oxa-2,10-diazatricyclo[7.4.0.0^2,6]trideca-1(13),9,11-trien-3-one] has an IC50 [1] of 1 to 10 nM, an EC50 [2] greater than 1000 nM and an IC50 [3] of 1 to 10 nM.
Work on COc1nc(Nc2cnc3c(c2)N(C(=O)OCCN(C)C)CCO3)ncc1-c1ccc(N2CCCC2=O)cc1 [Compound 5, 2-(dimethylamino)ethyl 7-({4-methoxy-5-[4-(2-oxopyrrolidin-1-yl)phenyl]pyrimidin-2-yl}amino)-1H,2H,3H-pyrido[2,3-b][1,4]oxazine-1-carboxylate] yielded an IC50 [1] of 1 to 10 nM, an EC50 [2] of 10 to 100 nM and an IC50 [3] of 1 to 10 nM.
O=C1CCCN1c1ccc(-c2cnc(Nc3cnc4c(c3)N3C(=O)CC[C@H]3CO4)nc2OCCN2CCOCC2)cc1 [Compound 6, (6S)-12-({4-[2-(morpholin-4-yl)ethoxy]-5-[4-(2-oxopyrrolidin-1-yl)phenyl]pyrimidin-2-yl}amino)-8-oxa-2,10-diazatricyclo[7.4.0.0^2,6]trideca-1(9),10,12-trien-3-one] showed an IC50 [1] of 1 to 10 nM, an EC50 [2] of 10 to 100 nM and an IC50 [3] of 1 to 10 nM.
CN(c1nc(Nc2cnc3c(c2)N2C(=O)CC[C@H]2CO3)ncc1-c1ccc(N2CCCC2=O)cc1)[C@@H]1CCOC1 [Compound 7, (6S)-12-[(4-{methyl[(3R)-oxolan-3-yl]amino}-5-[4-(2-oxopyrrolidin-1-yl)phenyl]pyrimidin-2-yl)amino]-8-oxa-2,10-diazatricyclo[7.4.0.0^2,6]trideca-1(13),9,11-trien-3-one] showed an IC50 [1] of 1 to 10 nM, an EC50 [2] greater than 1000 nM and an IC50 [3] of 1 to 10 nM.
COc1nc(Nc2cncc(N3CCC(N(C)C)CC3)c2)ncc1-c1ccc(-c2nnccc2C)cc1 [Compound 17, N-{5-[4-(dimethylamino)piperidin-1-yl]pyridin-3-yl}-4-methoxy-5-[4-(4-methylpyridazin-3-yl)phenyl]pyrimidin-2-amine] showed an IC50 [1] of 10 to 100 nM and an IC50 [3] of 10 to 100 nM.
CCN(CC)CCOC(=O)N1CCOc2ncc(Nc3ncc(-c4ccc(N5C(=O)CC[C@H]5C)cc4)cn3)cc21 [Compound 22, 2-(diethylamino)ethyl 7-[(5-{4-[(2R)-2-methyl-5-oxopyrrolidin-1-yl]phenyl}pyrimidin-2-yl)amino]-1H,2H,3H-pyrido[2,3-b][1,4]oxazine-1-carboxylate] gave an IC50 [1] of 10 to 100 nM and an IC50 [3] of 10 to 100 nM.
Molecule CCN(CC)CCOC(=O)N1CCOc2ncc(Nc3ncc(-c4ccc(N5CCCC5=O)cc4)cn3)cc21 [Compound 23, 2-(diethylamino)ethyl 7-({5-[4-(2-oxopyrrolidin-1-yl)phenyl]pyrimidin-2-yl}amino)-1H,2H,3H-pyrido[2,3-b][1,4]oxazine-1-carboxylate] has an IC50 [1] of 10 to 100 nM and an IC50 [3] of 10 to 100 nM.
Work on CCN(CC)CCN(C)C(=O)N1CCOc2ncc(Nc3ncc(-c4ccc(N5C(=O)CC[C@H]5C)cc4)c(OC)n3)cc21 [Compound 24, N-[2-(diethylamino)ethyl]-7-[(4-methoxy-5-{4-[(2R)-2-methyl-5-oxopyrrolidin-1-yl]phenyl}pyrimidin-2-yl)amino]-N-methyl-1H,2H,3H-pyrido[2,3-b][1,4]oxazine-1-carboxamide] yielded an IC50 [1] of 10 to 100 nM and an IC50 [3] of 100 to 1000 nM.
CCN(CC)CCN(C)C(=O)N1CCOc2ncc(Nc3ncc(-c4ccc(N5C(=O)CC[C@H]5C)cc4)cn3)cc21 [Compound 25, N-[2-(diethylamino)ethyl]-N-methyl-7-[(5-{4-[(2R)-2-methyl-5-oxopyrrolidin-1-yl]phenyl}pyrimidin-2-yl)amino]-1H,2H,3H-pyrido[2,3-b][1,4]oxazine-1-carboxamide] gave an IC50 [1] of 100 to 1000 nM and an IC50 [3] of 100 to 1000 nM.
With CP(C)(=O)c1ccc(-c2ccc(Nc3cnc4c(c3)N3C(=O)CC[C@H]3CO4)nc2)cc1 [Compound 27, (6S)-12-({5-[4-(dimethylphosphoryl)phenyl]pyridin-2-yl}amino)-8-oxa-2,10-diazatricyclo[7.4.0.0^2,6]trideca-1(9),10,12-trien-3-one] the IC50 [1] was greater than 1000 nM and the IC50 [3] was greater than 1000 nM.
